Columns and labels:
physchem = format: physicochemical; details: pH 2.7
Description: The determination of the logP values detailed in the tables and preparation examples hereinabove is carried out in accordance with EEC Directive 79/831 Annex V.A8 by means of HPLC (High Performance Liquid Chromatography) on a reversed-phase column (C 18). Temperature: 43° C.
The determination is carried out in the acidic range at pH 2.7, using 0.1% strength aqueous formic acid and acetonitrile (contains 0.1% formic acid) as eluents; linear gradient from 10% acetonitrile to 95% acetonitrile.
Calibration is carried out using unbranched alkan-2-ones (with 3 to 16 carbon atoms) with known logP values (determination of the logP values with reference to the retention times by linear interpolation between two successive alkanones).

Pyrenophora teres = Pyrenophora teres test (barley)/protective; format: in vivo; details: protective spray, 1000 ppm active substance, evaluation 8 days after inoculation
Description: Pyrenophora teres Test (Barley)/Protective
To prepare a suitable preparation of active substance, 1 part by weight of active substance is mixed with the stated amounts of solvent and emulsifier, and the concentrate is diluted with water to the desired concentration.
To test for protective activity, young plants are sprayed with the active substance preparation at the application rate detailed. After the spray coating has dried on, the plants are sprayed with a spore suspension of Pyrenophora teres. The plants remain in an incubation cabinet for 48 hours at 20° C. and 100% relative atmospheric humidity. The plants are placed in a greenhouse at a temperature of approximately 20° C. and a relative atmospheric humidity of approximately 80%.
Evaluation is carried out 8 days after the inoculation. 0% means an efficacy which corresponds to that of the control, while an efficacy of 100% means that no disease is observed.

SMILES | chromatographic logP (physchem) | further results
CCOCCn1c(=O)c2sc3c(=O)n(CCOCC)c(=O)c3sc2c1=O [Compound 16, 2,6-Bis(2-ethoxyethyl)-1H,5H-[1,4]dithiino[2,3-c:5,6-c′]dipyrrole-1,3,5,7(2H,6H)-tetrone] | 3.24 | 
O=c1c2sc3c(=O)n(-c4cccc(C(F)(F)F)c4)c(=O)c3sc2c(=O)n1-c1cccc(C(F)(F)F)c1 [Compound 31, 2,6-Bis[3-(trifluoromethyl)phenyl]-1H,5H-[1,4]dithiino[2,3-c:5,6-c′]dipyrrole-1,3,5,7(2H,6H)-tetrone] | 4.91 | 
CCC(Cn1c(=O)c2sc3c(=O)n(CC(CC)OC(C)=O)c(=O)c3sc2c1=O)OC(C)=O (centres unmarked) [Compound 35, (1,3,5,7-Tetraoxo-1,3,5,7-tetrahydro-2H,6H-[1,4]dithiino[2,3-c:5,6-c′]dipyrrole-2,6-diyl)dibutane-1,2-diyl diacetate] | 3.09 | 
CC(O)Cn1c(=O)c2sc3c(=O)n(CC(C)O)c(=O)c3sc2c1=O (centres unmarked) [Compound 14, 2,6-Bis(2-hydroxypropyl)-1H,5H-[1,4]dithiino[2,3-c:5,6-c′]dipyrrole-1,3,5,7(2H,6H)-tetrone] | 1.63 | 
CC(CC(=O)O)n1c(=O)c2sc3c(=O)n(C(C)CC(=O)O)c(=O)c3sc2c1=O (centres unmarked) [Compound 28, 3,3′-(1,3,5,7-Tetraoxo-1,3,5,7-tetrahydro-2H,6H-[1,4]dithiino[2,3-c:5,6-c′]dipyrrole-2,6-diyl)dibutanoic acid] | 1.99 | 
O=c1c2sc3c(=O)n(CCOc4ccccc4)c(=O)c3sc2c(=O)n1CCOc1ccccc1 [Compound 15, 2,6-Bis(2-phenoxyethyl)-1H,5H-[1,4]dithiino[2,3-c:5,6-c′]dipyrrole-1,3,5,7(2H,6H)-tetrone] | 3.86 | 
CC(C)(O)Cn1c(=O)c2sc3c(=O)n(CC(C)(C)O)c(=O)c3sc2c1=O [Compound 34, 2,6-Bis(2-hydroxy-2-methylpropyl)-1H,5H-[1,4]dithiino[2,3-c:5,6-c′]dipyrrole-1,3,5,7(2H,6H)-tetrone] | 3.65 | 
COCCn1c(=O)c2sc3c(=O)n(CCOC)c(=O)c3sc2c1=O [Compound 12, 2,6-Bis(2-methoxyethyl)-1H,5H-[1,4]dithiino[2,3-c:5,6-c′]dipyrrole-1,3,5,7(2H,6H)-tetrone] | 2.55 | 
CCCCC(C(=O)OCC)n1c(=O)c2sc3c(=O)n(C(CCCC)C(=O)OCC)c(=O)c3sc2c1=O (centres unmarked) [Compound 40, Diethyl 2,2′-(1,3,5,7-tetraoxo-1,3,5,7-tetrahydro-2H,6H-[1,4]dithiino[2,3-c:5,6-e]dipyrrole-2,6-diyl)di-hexanoate] |  | log P (physchem): log P = 4.66
O=C(O)CCCCn1c(=O)c2sc3c(=O)n(CCCCC(=O)O)c(=O)c3sc2c1=O [Compound 29, 5,5′-(1,3,5,7-Tetraoxo-1,3,5,7-tetrahydro-2H,6H-[1,4]dithiino[2,3-c:5,6-c′]dipyrrole-2,6-diyl)dipentanoic acid] | 2.02 | 
CC(C(=O)O)n1c(=O)c2sc3c(=O)n(C(C)C(=O)O)c(=O)c3sc2c1=O (centres unmarked) [Compound 24, 2,2′-(1,3,5,7-Tetraoxo-1,3,5,7-tetrahydro-2H,6H-[1,4]dithiino[2,3-c:5,6-c′]dipyrrole-2,6-diyl)dipropanoic acid] | 1.76 | 
O=c1c2sc3c(=O)n(C4(C(F)(F)F)CC4)c(=O)c3sc2c(=O)n1C1(C(F)(F)F)CC1 [Compound 7, 2,6-Bis[1-(trifluoromethyl)cyclopropyl]-1H,5H-[1,4]dithiino[2,3-c:5,6-c′]dipyrrole-1,3,5,7(2H,6H)-tetrone] | 4.03 | 
CCOC(=O)C(CC)n1c(=O)c2sc3c(=O)n(C(CC)C(=O)O)c(=O)c3sc2c1=O (centres unmarked) [Compound 41, 2-[2-(1-Ethoxy-1-oxobutan-2-yl)-1,3,5,7-tetraoxo-2,3,5,7-tetrahydro-1H,6H-[1,4]dithiino[2,3-c:5,6-c′]-dipyrrole-6-yl]butanoic acid] | 1.73 | 
CCn1c(=O)c2sc3c(=O)[nH]c(=O)c3sc2c1=O [Compound 39, 2-Ethyl-1H,5H-[1,4]dithiino[2,3-c:5,6-c′]dipyrrole-1,3,5,7(2H,6H)-tetrone] | 2.13 | 
CCC(O)Cn1c(=O)c2sc3c(=O)n(CC(O)CC)c(=O)c3sc2c1=O (centres unmarked) [Compound 13, 2,6-Bis(2-hydroxybutyl)-1H,5H-[1,4]dithiino[2,3-c:5,6-c′]dipyrrole-1,3,5,7(2H,6H)-tetrone] | 2.27 | 
O=c1c2sc3c(=O)n(Cc4ccccc4)c(=O)c3sc2c(=O)n1Cc1ccccc1 [Compound 11, 2,6-Dibenzyl-1H,5H-[1,4]dithiino[2,3-c:5,6-c′]dipyrrole-1,3,5,7(2H,6H)-tetrone] | 4.6 | 
CC(=O)OC(C)Cn1c(=O)c2sc3c(=O)n(CC(C)OC(C)=O)c(=O)c3sc2c1=O (centres unmarked) [Compound 36, (1,3,5,7-Tetraoxo-1,3,5,7-tetrahydro-2H,6H-[1,4]dithiino[2,3-c:5,6-c′]dipyrrole-2,6-diyl)dipropane-1,2-diyl diacetate] | 3.09 | 
O=C(O)C(Cc1ccccc1)n1c(=O)c2sc3c(=O)n(C(Cc4ccccc4)C(=O)O)c(=O)c3sc2c1=O (centres unmarked) [Compound 32, 2,2′-(1,3,5,7-Tetraoxo-1,3,5,7-tetrahydro-2H,6H-[1,4]dithiino[2,3-c:5,6-c′]dipyrrole-2,6-diyl)bis(3-phenyl-propanoic acid)] | 3.12 | 
Cn1c(=O)c2sc3c(=O)n(C)c(=O)c3sc2c1=O [Compound 1, 2,6-Dimethyl-1H,5H-[1,4]dithiino[2,3-c:5,6-c′]dipyrrole-1,3,5,7(2H,6H)-tetrone] | 2.32 | efficacy (Pyrenophora teres): ≥ 70%
CC(C)n1c(=O)c2sc3c(=O)n(C(C)C)c(=O)c3sc2c1=O [Compound 4, 2,6-Di(propan-2-yl)-1H,5H-[1,4]dithiino[2,3-c:5,6-c′]dipyrrole-1,3,5,7(2H,6H)-tetrone] | 4.19 | 
O=c1c2sc3c(=O)n(CC(F)(F)F)c(=O)c3sc2c(=O)n1CC(F)(F)F [Compound 6, 2,6-Bis(2,2,2-trifluoroethyl)-1H,5H-[1,4]dithiino[2,3-c:5,6-c′]dipyrrole-1,3,5,7(2H,6H)-tetrone] | 3.41 | 
O=c1[nH]c(=O)c2sc3c(=O)[nH]c(=O)c3sc12 [Compound 8, 1H,5H-[1,4]Dithiino[2,3-c:5,6-c′]dipyrrole-1,3,5,7(2H,6H)-tetrone] | 1.13 | 
